In patent publication US20040063580A1, “Bicyclic triazolone derivatives and a herbicides containing the same” (priority 2000, published 2004):

Experiments:
velvetleaf = experiment: Herbicidal effects against weeds (post emergence), velvetleaf; type: in vivo; settings: post emergence spray, evaluated two weeks after treatment
Procedure: (§1) Herbicidal Effects Against Weeds (Post Emergence)
(§2) After filling 300 g field soil in jiffypot™ having diameter of 10 cm, the soil was steam sterilized. Seeds of velvetleaf, redroot pigweed, tall morningglory and corn onto the surface of the soil were scattered, and then covered with the soil to a thickness of 0.5 cm for the weed, 1 cm for the crop. When the weed and the crop reached the designated growth stage, they were treated with the compound to be tested.
(§3) Preparation of the Test Solution and the Method of Treatment
(§4) The compound to be tested was dissolved in acetone which contain Tween 20™ and diluted with deionized water to prepare the test solution for 10 g/a and 1 g/a use. The test solution was sprayed on the pots in a device for spraying using spraygun.
(§5) Method of Indicating the Effect and Phytotoxicity
(§6) The effect of the compound tested on the weeds and phytotoxicity on the crops were evaluated two weeks after treatment with the compound as 6 grades from 0 to 5 shown in the Table 9 and 10.
(§7) In the Table 11 and 12, the herbicidal effects were indicated by the following evaluation index.

redroot pigweed = experiment: Herbicidal effects against weeds (post emergence), redroot pigweed; type: in vivo; settings: post emergence spray, evaluated two weeks after treatment
Procedure: as §1, §2, §3, §4, §5, §6, §7

corn = experiment: Post emergence test, phytotoxicity on the crop corn; type: in vivo; settings: post emergence spray, evaluated two weeks after treatment
Procedure: as §1, §2, §3, §4, §5, §6
The phytotoxicity was indicated by the following evaluation index.

With `CCC(=O)N(c1cc(-n2nc3ccc(Cl)cn3c2=O)c(F)cc1C#N)S(=O)(=O)CC` [A-7] the “Evaluation index Velvet leaf” value (velvetleaf; 10 g/a) was 5 (maximum *all dead) 100) and the “Evaluation index Redroot pigweed” value (redroot pigweed; 10 g/a) was 5 (maximum *all dead) 100).
In the case of `CCS(=O)(=O)N(C(=O)C(C)(C)C)c1cc(-n2nc3ccc(Cl)cn3c2=O)c(F)cc1C#N` [A-8], the “Evaluation index Velvet leaf” value (velvetleaf; 1 g/a) is reported as 5 (maximum *all dead) 100), the “Evaluation index Velvet leaf” value (velvetleaf; 10 g/a) is reported as 5 (maximum *all dead) 100) and the “Evaluation index Redroot pigweed” value (redroot pigweed; 1 g/a) is reported as 5 (maximum *all dead) 100). The “Evaluation index Redroot pigweed” value (redroot pigweed; 10 g/a) was 5 (maximum *all dead) 100).
With `CC(C)S(=O)(=O)Nc1cc(-n2nc3ccc(Cl)cn3c2=O)c(F)cc1C#N` [A-11] the “Evaluation index Velvet leaf” value (velvetleaf; 10 g/a) was 5 (maximum *all dead) 100) and the “Evaluation index Redroot pigweed” value (redroot pigweed; 10 g/a) was 5 (maximum *all dead) 100).
With `C#CC(C)Oc1cc(-n2nc3ccc(Cl)cn3c2=O)c(F)cc1Cl` (stereo not shown) [A-26] the “Evaluation index Velvet leaf” value (velvetleaf; 1 g/a) was 5 (maximum *all dead) 100), the “Evaluation index Velvet leaf” value (velvetleaf; 10 g/a) was 5 (maximum *all dead) 100) and the “Evaluation index Redroot pigweed” value (redroot pigweed; 1 g/a) was 5 (maximum *all dead) 100). The “Evaluation index Redroot pigweed” value (redroot pigweed; 10 g/a) was 5 (maximum *all dead) 100).
With `CCOC(=O)C(C)Oc1cc(-n2nc3ccc(Cl)cn3c2=O)c(F)cc1Cl` (stereo not shown) [A-28] the “Evaluation index Velvet leaf” value (velvetleaf; 1 g/a) was 4 (maximum 87.6 to 99.9), the “Evaluation index Velvet leaf” value (velvetleaf; 10 g/a) was 5 (maximum *all dead) 100) and the “Evaluation index Redroot pigweed” value (redroot pigweed; 1 g/a) was 5 (maximum *all dead) 100). For the same molecule, the “Evaluation index Redroot pigweed” value (redroot pigweed; 10 g/a) was 5 (maximum *all dead) 100).
In the case of `CCCS(=O)(=O)Nc1cc(-n2nc3ccc(Cl)cn3c2=O)c(F)cc1[N+](=O)[O-]` [A-40], the “Evaluation index Velvet leaf” value (velvetleaf; 10 g/a) is reported as 5 (maximum *all dead) 100) and the “Evaluation index Redroot pigweed” value (redroot pigweed; 10 g/a) is reported as 5 (maximum *all dead) 100).
With `CC(C)S(=O)(=O)Nc1cc(-n2nc3ccc(Cl)cn3c2=O)c(F)cc1[N+](=O)[O-]` [A-41] the “Evaluation index Velvet leaf” value (velvetleaf; 1 g/a) was 5 (maximum *all dead) 100), the “Evaluation index Velvet leaf” value (velvetleaf; 10 g/a) was 5 (maximum *all dead) 100) and the “Evaluation index Redroot pigweed” value (redroot pigweed; 1 g/a) was 5 (maximum *all dead) 100). For the same molecule, the “Evaluation index Redroot pigweed” value (redroot pigweed; 10 g/a) was 5 (maximum *all dead) 100).
`CCOC(=O)C=Cc1cc(-n2nc3ccc(Cl)cn3c2=O)c(F)cc1Cl` [A-42, Ethyl 2-chloro-4-fluoro-5-(6-chloro-2,3-dihydro-3-oxo-1,2,4-triazolo[4,3-a]pyridin-2-yl)cinnamate] gave a melting point of 162 to 165 °C.
For `CCS(=O)(=O)Nc1cc(-n2nc3ccc(Br)cn3c2=O)ccc1C#N` [A-45], the “Evaluation index Velvet leaf” value (velvetleaf; 1 g/a) was 5 (maximum *all dead) 100) and the “Evaluation index Redroot pigweed” value (redroot pigweed; 1 g/a) was 5 (maximum *all dead) 100).
In the case of `CCOC(=O)COc1cc(-n2nc3cc(C)ccn3c2=O)c(F)cc1Cl` [A-55], the “Evaluation index Velvet leaf” value (velvetleaf; 10 g/a) is reported as 4 (maximum 87.6 to 99.9) and the “Evaluation index Redroot pigweed” value (redroot pigweed; 10 g/a) is reported as 5 (maximum *all dead) 100).
For `C=C(Cl)COc1cc(-n2nc3ccc(Cl)cn3c2=O)c(F)cc1Cl` [A-61], the “Evaluation index Velvet leaf” value (velvetleaf; 10 g/a) was 4 (maximum 87.6 to 99.9) and the “Evaluation index Redroot pigweed” value (redroot pigweed; 10 g/a) was 5 (maximum *all dead) 100).
For `Cc1cc2c(-n3nc4ccc(Cl)cn4c3=O)c(F)cc(Cl)c2o1` [A-62, 6-Chloro-2-(7-chloro-5-fluoro-2-methylbenzofuran-4-yl)-1,2,4-triazolo[4,3-a]pyridin-3(2H)-one], the “Evaluation index Velvet leaf” value (velvetleaf; 1 g/a) was 5 (maximum *all dead) 100), the “Evaluation index Velvet leaf” value (velvetleaf; 10 g/a) was 5 (maximum *all dead) 100) and the “Evaluation index Redroot pigweed” value (redroot pigweed; 1 g/a) was 5 (maximum *all dead) 100). For the same molecule, the “Evaluation index Redroot pigweed” value (redroot pigweed; 10 g/a) was 5 (maximum *all dead) 100), the “Evaluation index Corn (phytotoxicity)” value (corn; 1 g/a) was 1 (small 0.1 to 12.5) and the “Evaluation index Corn (phytotoxicity)” value (corn; 10 g/a) was 1 (small 0.1 to 12.5). For the same molecule, the melting point was 205 to 207 °C.
In the case of `CCS(=O)(=O)Nc1cc(-n2nc3n(c2=O)CC(C)S3)c(F)cc1C#N` (stereo not shown) [C-4], the “Evaluation index Velvet leaf” value (velvetleaf; 1 g/a) is reported as 5 (maximum *all dead) 100), the “Evaluation index Velvet leaf” value (velvetleaf; 10 g/a) is reported as 5 (maximum *all dead) 100) and the “Evaluation index Redroot pigweed” value (redroot pigweed; 1 g/a) is reported as 5 (maximum *all dead) 100). The “Evaluation index Redroot pigweed” value (redroot pigweed; 10 g/a) was 5 (maximum *all dead) 100).
Molecule `C#CCN(c1cc(-n2nc3ccc(Cl)cn3c2=O)c(F)cc1C#N)S(=O)(=O)CC` [Compound No. A-5, 6-Chloro-2-[4-cyano-5-(N-ethanesulfonyl-N-propargylamino)-2-fluorophenyl]-1,2,4-triazolo[4,3-a]pyridin-3(2H)-one] has a melting point of 176 to 178 °C.
With `CCS(=O)(=O)N(C(C)=O)c1cc(-n2nc3ccc(Cl)cn3c2=O)c(F)cc1C#N` [Compound No. A-6, 2-[5-(N-acetyl-N-ethanesulfonylamino)-4-cyano-2-fluorophenyl]-6-chloro-1,2,4-triazolo[4,3-a]pyridin-3(2H)-one] the “Evaluation index Velvet leaf” value (velvetleaf; 10 g/a) was 5 (maximum *all dead) 100), the “Evaluation index Redroot pigweed” value (redroot pigweed; 10 g/a) was 5 (maximum *all dead) 100) and the “Evaluation index Corn (phytotoxicity)” value (corn; 10 g/a) was 1 (small 0.1 to 12.5). For the same molecule, the melting point was 220 to 222 °C.
Molecule `C=CCOc1cc(-n2nc3ccc(Cl)cn3c2=O)c(F)cc1C#N` [Compound No. A-13, 2-(5-Allyloxy-4-cyano-2-fluorophenyl)-6-chloro-1,2,4-triazolo[4,3-a]pyridin-3(2H)-one] has a melting point of 183 to 185 °C.
For `C#CCOc1cc(-n2nc3ccc(Cl)cn3c2=O)c(F)cc1C#N` [Compound No. A-14, 6-Chloro-2-(4-cyano-2-fluoro-5-propargyloxyphenyl)-1,2,4-triazolo[4,3-a]pyridin-3(2H)-one], the melting point was 209 to 211 °C.
For `CC(C)c1sc(F)c(-n2nc3ccc(Cl)cn3c2=O)c1C#N` [Compound No. A-18, 6-Chloro-2-(4-cyano-2-fluoro-5-isopropylthiophenyl)-1,2,4-triazolo[4,3-a]pyridin-3(2H)-one], the melting point was 148 to 150 °C.
`CCC(=O)NS(=O)(=O)c1cc(-n2nc3ccc(Cl)cn3c2=O)c(F)cc1C#N` [Compound No. A-20, 5-(6-Chloro-2,3-dihydro-3-oxo-1,2,4-triazolo[4,3-a]pyridin-2-yl)-2-cyano-4-fluoro-N-propionylbenzenesul fonamide] showed a melting point of 190 to 194 °C.
With `CNS(=O)(=O)c1cc(-n2nc3ccc(Cl)cn3c2=O)c(F)cc1C#N` [Compound No. A-21, 5-(6-Chloro-2,3-dihydro-3-oxo-1,2,4-triazolo[4,3-a]pyridin-2-yl)-2-cyano-4-fluoro-N-methylbenzenesulfonamide] the melting point was 154 to 157 °C.
With `COc1cc(-n2nc3ccc(Cl)cn3c2=O)c(F)cc1Cl` [Compound No. A-23, 6-Chloro-2-(4-chloro-2-fluoro-5-methoxyphenyl)-1,2,4-triazolo[4,3-a]pyridin-3(2H)-one] the melting point was 140 to 142 °C.
With `C=CCOc1cc(-n2nc3ccc(Cl)cn3c2=O)c(F)cc1Cl` [Compound No. A-24] the “Evaluation index Velvet leaf” value (velvetleaf; 1 g/a) was 4 (maximum 87.6 to 99.9), the “Evaluation index Velvet leaf” value (velvetleaf; 10 g/a) was 5 (maximum *all dead) 100) and the “Evaluation index Redroot pigweed” value (redroot pigweed; 1 g/a) was 5 (maximum *all dead) 100). The “Evaluation index Redroot pigweed” value (redroot pigweed; 10 g/a) was 5 (maximum *all dead) 100).
For `CC(C)OC(=O)c1cc(-n2nc3ccc(Cl)cn3c2=O)c(F)cc1Cl` [Compound No. A-33, Isopropyl 2-chloro-4-fluoro-5-(6-chloro-2,3-dihydro-3-oxo-1,2,4-triazolo[4,3-a]pyridin-2-yl)benzoate], the melting point was 120 to 123 °C.
In the case of `CCOC(=O)COC(=O)c1cc(-n2nc3ccc(Cl)cn3c2=O)c(F)cc1Cl` [Compound No. A-34, Ethoxycarbonylmethyl 2-chloro-4-fluoro-5-(6-chloro-2,3-dihydro-3-oxo-1,2,4-triazolo[4,3-a]pyridin-2-yl)benzoate], the “Evaluation index Velvet leaf” value (velvetleaf; 1 g/a) is reported as 4 (maximum 87.6 to 99.9), the “Evaluation index Redroot pigweed” value (redroot pigweed; 1 g/a) is reported as 5 (maximum *all dead) 100) and the “Evaluation index Corn (phytotoxicity)” value (corn; 1 g/a) is reported as 1 (small 0.1 to 12.5). The melting point was 62 to 65 °C.
In the case of `COC(=O)C(Cl)Cc1cc(-n2nc3ccc(Cl)cn3c2=O)c(F)cc1Cl` (stereo not shown) [Compound No. A-43, Methyl 2-chloro-3-[2-chloro-4-fluoro-5-(6-chloro-2,3-dihydro-3-oxo-1,2,4-triazolo[4,3-a]pyridin-2-yl)phenyl]propionate], the “Evaluation index Velvet leaf” value (velvetleaf; 1 g/a) is reported as 5 (maximum *all dead) 100), the “Evaluation index Velvet leaf” value (velvetleaf; 10 g/a) is reported as 5 (maximum *all dead) 100) and the “Evaluation index Redroot pigweed” value (redroot pigweed; 1 g/a) is reported as 5 (maximum *all dead) 100). For the same molecule, the “Evaluation index Redroot pigweed” value (redroot pigweed; 10 g/a) was 5 (maximum *all dead) 100), the “Evaluation index Corn (phytotoxicity)” value (corn; 1 g/a) was 0 (no effect 0) and the “Evaluation index Corn (phytotoxicity)” value (corn; 10 g/a) was 0 (no effect 0).
Work on `C#CCOc1cc(-n2nc3c(Cl)cc(Cl)cn3c2=O)c(F)cc1C#N` [Compound No. A-49, 6,8-Dichloro-2-(4-cyano-2-fluoro-5-propargyloxyphenyl)-1,2,4-triazolo[4,3-a]pyridin-3(2H)-one] yielded a melting point of 145 to 147 °C.
With `CCS(=O)(=O)Nc1cc(-n2nc3n(c2=O)CCS3)c(F)cc1C#N` [Compound No. C-2, 5,6-Dihydro-2-(4-cyano-5-ethylsulfonylamino-2-fluorophenyl)thiazolo[2,3-c][1,2,4]triazol-3(2H)-one] the “Evaluation index Velvet leaf” value (velvetleaf; 1 g/a) was 5 (maximum *all dead) 100), the “Evaluation index Velvet leaf” value (velvetleaf; 10 g/a) was 5 (maximum *all dead) 100) and the “Evaluation index Redroot pigweed” value (redroot pigweed; 1 g/a) was 5 (maximum *all dead) 100). For the same molecule, the “Evaluation index Redroot pigweed” value (redroot pigweed; 10 g/a) was 5 (maximum *all dead) 100), the “Evaluation index Corn (phytotoxicity)” value (corn; 1 g/a) was 0 (no effect 0) and the “Evaluation index Corn (phytotoxicity)” value (corn; 10 g/a) was 0 (no effect 0).
For `CCS(=O)(=O)Nc1cc(-n2nc3n(c2=O)CCCN3C)c(F)cc1C#N` [Compound No. F-2, 5,6,7,8-Tetrahydro-8-methyl-2-(4-cyano-5-ethylsulfonylamino-2-fluorophenyl)-[1,2,4]triazolo [4,3-a]pyrimidin-3(2H)-one], the “Evaluation index Velvet leaf” value (velvetleaf; 1 g/a) was 4 (maximum 87.6 to 99.9), the “Evaluation index Velvet leaf” value (velvetleaf; 10 g/a) was 5 (maximum *all dead) 100) and the “Evaluation index Redroot pigweed” value (redroot pigweed; 1 g/a) was 5 (maximum *all dead) 100). The “Evaluation index Redroot pigweed” value (redroot pigweed; 10 g/a) was 5 (maximum *all dead) 100), the “Evaluation index Corn (phytotoxicity)” value (corn; 1 g/a) was 1 (small 0.1 to 12.5) and the “Evaluation index Corn (phytotoxicity)” value (corn; 10 g/a) was 3 (big 25.1 to 50.0).
